Values joined by “and” are separate entries in the source; they are usually repeats but may differ in a detail not shown here. Equal values may be shown once.
Legend:
Format in all cases: in vivo, pig
diabetic pigs = assay: Plasma insulin response after a standard meal in diabetic pigs two and nine weeks after STZ infusion; conditions: STZ 140 mg/kg infused for ten minutes, 25 diabetic pigs
Protocol: After 24 hours fasting, a standard meal (523 kJ ME/kg BW^0.75) was fed to the pigs and blood was sampled up to 480 minutes after feeding). Pigs were studied two and nine weeks after streptozotocin (STZ) infusion (140 mg/kg for ten minutes). […] However, as judged by the severity of diabetes (quantified by the 24-hour urinary glucose excretion in relation to standard meal feeding), the recovery/regeneration/hypertrophy of beta-cells takes place in the first three to four weeks after STZ infusion and stops after that time period (see FIG. 6).

[1] = test system: cross-bred pigs (Yorkshire×Landrace); assay: 6,6-2H-glucose tracer kinetics (fasting Ra glucose, hepatic glucose production, whole body glucose uptake) in STZ diabetic pigs; conditions: 130 mg STZ/kg
Protocol: Protocol 1: fasting hepatic glucose production and whole body glucose uptake were studied with 6,6-^2H-glucose infusion in five normal and five STZ (130 mg/kg) diabetic pigs.
Protocol 2: insulin-mediated hepatic glucose production and whole body glucose uptake were studied with the hyperinsulinemic (1 or 2 mU/kg/minute) euglycemic clamp technique in combination with 6,6-^2H-glucose infusion in six normal and seven STZ (130 mg/kg) diabetic pigs.
After overnight fasting, a 6,6-^2H-glucose solution was administered as a prime—(72 mg) continuous (1.2 mg/minute) infusion for three hours in normal pigs. In diabetic pigs, 6,6-^2H-glucose was given as an adjusted prime— (216 mg) continuous (3.6 mg/minute) infusion for three hours (Koopmans et al., 1991). Isotopic steady-state conditions were achieved within 90 minutes after initiation of the tracer infusion and steady-state calculations were carried out during the last hour of the tracer infusion (t=120, 135, 150, 165 and 180 minutes). […]
Blood samples for determination of 6,6-^2H-glucose enrichment, glucose and insulin were collected in heparinized tubes (150 USP. U. Lithium Heparin, 10 mL Venoject, Terumo, Leuven, Belgium) and immediately chilled at 0° C. on ice and centrifuged at 4° C. for ten minutes at 3000 rpm. […] Selected ion monitoring, data acquisition and quantitative calculations were performed using the HP Chemstation software. Glucose concentration was determined using the internal standard method (xylose was added as internal standard). The internal standard was monitored at m/z 145. Glucose was monitored at m/z 187 for glucose and m/z 189 for d2-glucose. Glucose enrichments were calculated by dividing the area of the m/z 189 peak and the m/z 187 peak and correcting for natural enrichments. Isotopic enrichment was calculated as tracer-to-tracee ratio after subtracting the isotopic enrichment of a background plasma sample. An aliquot of the 6,6-^2H-glucose infusate was analyzed for the isotope concentration to calculate the actual infusion rate for each infusion experiment. […]

[2] = test system: cross-bred pigs (Yorkshire×Landrace); assay: Induction of diabetes by streptozotocin infusion in pigs: fasting plasma glucose, food intake, urinary glucose and ketones
Protocol: Experimental protocols describing the management, surgical procedures, and animal care were reviewed and approved by the ASG-Lelystad Animal Care and Use Committee (Lelystad, NL). Thirty-six cross-bred pigs (Yorkshire×Landrace) of approximately 30 kg BW at surgery were used in this study. Two weeks before surgery, the pigs were housed in metabolism cages (1.15×1.35 m) and adapted to the fight/dark cycle and the feeding regimen. Lights were on and off at 05:00 and 22:00 hours, respectively. Ambient room temperature was 20° C.
STZ (Pharmacia & Upjohn Company, Kalamazoo, Mich., USA) was dissolved in saline (1 g/10 mL) and administrated to pigs via the jugular vein by a continuous infusion over 30 minutes. STZ treatment (110, 130 or 150 mg/kg) was initiated four to five hours after the morning meal. During the first three days after STZ treatment, food was offered ad libitum in order to avoid hypoglycemia (Gäbel et al., 1985; Grussner et al., 1993). Over the following four days, the food was offered still ad libitum but now from 06:00 to 7:00 and from 15:00 to 16:00 hours to evaluate the food intake capacity in relation to 24-hour urinary glucose excretion of diabetic pigs. This was done first, to be sure that diabetic pigs consume their meals at the iso-energetic level of 1045 kJ ME/kg BW^0.75 per day and second, to underline the importance of iso-energetic feeding when 24-hour urinary glucose excretion is used as one of the parameters to quantify the efficacy of metformin in diabetic pigs. On day 8 post-STZ treatment, pigs were fed on a restricted and iso-energetic level of 1045 kJ ME/kg BW^0.75 per day throughout the study.
Plasma insulin concentration was measured using a Delfia assay (test kit No. B080-1101 by Perkin Elmer Life Sciences, trust by Wallac Oy, Turku, Finland). This specific pig insulin assay was validated using pig insulin standards. Plasma and urine glucose concentrations were analyzed enzymically on an autoanalyzer of Radiometer (ABL and AML, Copenhagen, Denmark). Urine was collected in buckets containing 0.5 grams Halamid-d (sodium-p-toluenesulfonchloramide, Akzo Nobel Chemicals, Amersfoort, NL) to prevent microbial breakdown of glucose. Urine volume was registered over a given interval in order to calculate the rate of urinary glucose excretion. Urine samples (0.5 mL) were stored at −20° C. for later glucose analyses. Ketones (acetoacetic acid) were determined in fresh urine by a reagent strip test (Ketostix, Bayer Diagnostics, Mijdrecht, NL).

CN(N=O)C(=O)N[C@H]1C(O)O[C@H](CO)[C@@H](O)[C@@H]1O (mixture of isomers) [STZ, streptozotocin]
Area under the curve for the plasma insulin response (0-480 minutes after meal), nine weeks compared to two weeks after STZ infusion (diabetic pigs): two-fold larger
Fasting Ra glucose compared to normal pigs [1]: approximately two-fold greater
Insulin-inhibited hepatic glucose production versus normal pigs [1]: two-fold greater
Insulin-stimulated whole body glucose uptake versus normal pigs [1]: three-fold lower
Pigs with overnight fasting plasma glucose <10 mmol/L (no fasting hyperglycemia) ([2]; STZ 110 mg/kg BW, one week post STZ): two of six
Diabetic state ([2]; STZ 130 mg/kg): non-ketotic, moderately dyslipidemic, developed severe insulin resistance for glucose metabolism, maintained growth without insulin therapy
Pigs with fasting hyperglycemia (>10 mmol/L) ([2]; STZ 130 mg/kg): 20 of 23
Pigs with overnight fasting plasma glucose <10 mmol/L ([2]; STZ 130 mg/kg BW, one week post STZ): three of 23
Overnight fasting plasma glucose ([2]; STZ 150 mg/kg BW, all six pigs, one week post STZ): > 20 mmol/L
Diabetic state ([2]; STZ 150 mg/kg, all pigs): clear hyperglycemic, hypoinsulinemic, and ketotic diabetic state
Fasting urinary glucose excretion (factual) ([2]; STZ diabetic pigs fasted overnight, urine collected for eight hours): 2.3 ± 0.2 mg/kg/min and 2.3 mg/kg/min
Ketones in urine ([2]; STZ dose of 110 and 130 mg/kg, trace = 0.5 mmol/L): no or trace
Predicted fasting urinary glucose excretion ([2]; from intercept of linear regression and average body weight): 2.6 mg/kg/min
Fasting 24-hour urinary glucose excretion (intercept of regression) ([2]; linear regression y=0.33x+141): 141 g per day
